These are literature values, as cited in PMC8287861 (Frontiers in Microbiology, 2021).

Converted amounts (≈) assume the structure as drawn. Where two headings read alike, the source gives them in different places. Where only a bound is given, the exact number is not on record here.

Data set [1] concerns KPC-producing strains of Klebsiella pneumoniae and blaKPC mutants. More on the design: method as in Nelson et al., 2019. The settings on record: ref Nelson et al., 2019.
For a further data set, the system named is PAM4938 VCC-1. Set-up: method as in Lomovskaya et al. (2020b). Conditions: PAM4938, VCC-1, class A-CARB; ref Lomovskaya et al. (2020b).
A further data set deals with PAM4827 OXA-1. Set-up: method as in Lomovskaya et al. (2020b). Conditions: PAM4827, OXA-1, class D; ref Lomovskaya et al. (2020b).

`CC(C)(O/N=C(\C(=O)N[C@@H]1C(=O)N2C(C(=O)[O-])=C(C[n+]3ccccc3)CS[C@H]12)c1csc(N)n1)C(=O)O` [Ceftazidime, ceftazidime]: the MIC in data set [1] (KP1074, KPC-3, SHV-11, TEM-1/GD) is >128 µg/mL; in data set [1] (KP1099, KPC-2, SHV-11, SHV-12, CTX-M-14/GD), >128 µg/mL; in data set [1] (KP1102, KPC-3, TEM-1, SHV-11/GD) it was >128 µg/mL; in data set [1] (KP1246, KPC-3, SHV-12, SHV-11/FL), >128 µg/mL; in data set [1] (KP1252, KPC-3, TEM-1, SHV-11/FL), >128 µg/mL; in data set [1] (KP1317, KPC-3, TEM-1, SHV-11/GD) it was >128 µg/mL. The MIC in data set [1] (KP1500, KPC-3, TEM-1, SHV-11, CTX-M-15 OXA-1 OXA-9/IS at −48) is >128 µg/mL; in data set [1] (KPM3191, KPC-3:: DDK duplication at aa#831 (KPC-29)), >128 µg/mL; in data set [1] (KPM3192, KPC-3:: D179Y (KPC-31)) it was >128 µg/mL; in data set [1] (KPM3200, KPC-3::duplication of EAVI (aa#278)), >128 µg/mL; in data set [1] (KPM3205, KPC-3 ::duplication of KKDY (aa#273)) it was >128 µg/mL; in data set [1] (KPM3210, KPC-2::D179N) it was >128 µg/mL. The minimal inhibitory concentration (MIC) is >128 µg/mL in data set [1] (KPM3212, deletion of ELNSAI at aa#497); >128 µg/mL in data set [1] (KPM3213, KPC-2::D179Y (KPC-31), selected from KP1099); >128 µg/mL in data set [1] (KPM3214, KPC-2::D179A); >128 µg/mL in data set [1] (KPM3493, KPC-3::duplication of EL at aa#164 (KPC-25)); >128 µg/mL in data set [1] (KPM3494, KPC-3::R167S); >128 µg/mL in data set [1] (KPM3495, KPC-3::A175V). Further, the MIC in data set [1] (KPM3511, KPC-3::P174Q) is >128 µg/mL; in data set [1] (KPM3512, KPC-3:: P174L), >128 µg/mL; in data set [1] (KPM3517, KPC-3::D179Y (KPC-31)) it was >128 µg/mL; in data set [1] (KPM3520, Both WT and mutant KPC-3::duplication of 8aa (aa#264–271)), >128 µg/mL; in data set [1] (KPM3523, Both WT and mutant KPC-3:: deletion of EL (aa#241–242)) it was >128 µg/mL; in data set [1] (KPM3546, KPC-3::R164H) it was >128 µg/mL.

Regarding `CCN1CCN(C(=O)N[C@@H](C(=O)N[C@@H]2C(=O)N3[C@@H]2SC(C)(C)[C@@H]3C(=O)O)c2ccccc2)C(=O)C1=O` [Piperacillin, piperacillin], the MIC with PAM4938 VCC-1 is 16 µg/mL (≈ 30.9 µM); in the data set with PAM4827 OXA-1 it was 4 µg/mL (≈ 7.73 µM).

As a reminder, the MIC is the lowest concentration found to suppress growth.
